Assays:
Type in all cases: in vivo
[1] = test system: giant foxtail (Setaria faberi); assay: Test G Pre-Emergence Protocol; details: Setaria faberi, pre-emergence, 312 h, evaluated after 13 days; for pest or weed control at 15.625 g/ha: 15.625 g ai/ha; for pest or weed control at 15.625 g/ha / pest or weed control at 250 g/ha: read-out: Foxtail, Giant damage rating (100=total damage to plant; 0=no damage to plant); for pest or weed control at 62.5 g/ha: 62.5 g ai/ha, 100=total damage to plant, 0=no damage to plant, read-out: Foxtail, Giant damage rating; for pest or weed control at 250 g/ha: 250 g ai/ha
Method in brief: (§1)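 Scores are visual damage ratings from 0 (no damage) to 100 (total plant kill), taken 13 days after treatment. Compound was sprayed one day post-sowing at 15.625, 62.5 or 250 g/ha in 50:50 acetone/water with 0.5% Tween 20.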

[2] = test system: ivy-leaved morning glory (Ipomoea hederacea); assay: Test G Pre-Emergence Protocol; details: Ipomoea, pre-emergence, 312 h, evaluated after 13 days; for pest or weed control at 15.625 g/ha: 15.625 g ai/ha; for pest or weed control at 15.625 g/ha / pest or weed control at 250 g/ha: read-out: Morningglory, Ivy-leaved damage rating (100=total damage to plant; 0=no damage to plant); for pest or weed control at 62.5 g/ha: 62.5 g ai/ha, 100=total damage to plant, 0=no damage to plant, read-out: Morningglory, Ivy-leaved damage rating; for pest or weed control at 250 g/ha: 250 g ai/ha
Method in brief: as §1

[3] = test system: velvetleaf (Abutilon theophrasti); assay: Test G Pre-Emergence Protocol; details: Abutilon theophrasti, pre-emergence, 312 h, evaluated after 13 days; for pest or weed control at 15.625 g/ha: 15.625 g ai/ha; for pest or weed control at 15.625 g/ha / pest or weed control at 250 g/ha: read-out: Velvetleaf damage rating (100=total damage to plant; 0=no damage to plant); for pest or weed control at 62.5 g/ha: 62.5 g ai/ha, 100=total damage to plant, 0=no damage to plant, read-out: Velvetleaf damage rating; for pest or weed control at 250 g/ha: 250 g ai/ha
Method in brief: as §1

corn (Zea mays) [4] = assay: Test G Pre-Emergence Protocol; details: Zea mays, pre-emergence, 312 h, evaluated after 13 days; for plant injury at 15.625 g/ha: 15.625 g ai/ha; for plant injury at 15.625 g/ha / plant injury at 250 g/ha: read-out: Corn damage rating (100=total damage to plant; 0=no damage to plant); for plant injury at 62.5 g/ha: 62.5 g ai/ha, 100=total damage to plant, 0=no damage to plant, read-out: Corn damage rating; for plant injury at 250 g/ha: 250 g ai/ha
Method in brief: as §1

[5] = test system: barnyardgrass (Echinochloa crus-galli); assay: Test G Pre-Emergence Protocol; details: Echinochloa crus-galli, pre-emergence, 312 h, evaluated after 13 days; for pest or weed control at 15.625 g/ha: 15.625 g ai/ha; for pest or weed control at 15.625 g/ha / pest or weed control at 250 g/ha: read-out: Barnyardgrass damage rating (100=total damage to plant; 0=no damage to plant); for pest or weed control at 62.5 g/ha: 62.5 g ai/ha, 100=total damage to plant, 0=no damage to plant, read-out: Barnyardgrass damage rating; for pest or weed control at 250 g/ha: 250 g ai/ha
Method in brief: as §1

[6] = test system: redroot pigweed (Amaranthus retroflexus); assay: Test G Pre-Emergence Protocol; details: Amaranthus retroflexus, pre-emergence, 312 h, evaluated after 13 days; for pest or weed control at 15.625 g/ha: 15.625 g ai/ha; for pest or weed control at 15.625 g/ha / pest or weed control at 250 g/ha: read-out: Pigweed, Redroot damage rating (100=total damage to plant; 0=no damage to plant); for pest or weed control at 62.5 g/ha: 62.5 g ai/ha, 100=total damage to plant, 0=no damage to plant, read-out: Pigweed, Redroot damage rating; for pest or weed control at 250 g/ha: 250 g ai/ha
Method in brief: as §1

[7] = test system: giant foxtail (Setaria faberi); assay: Test G Post-Emergence Protocol; details: Setaria faberi, post-emergence, 312 h, read-out: Foxtail, Giant damage rating; for pest or weed control at 15.625 g/ha: 15.625 g ai/ha, evaluated after 13 days (100=total damage to plant; 0=no damage to plant); for pest or weed control at 62.5 g/ha: 62.5 g ai/ha
Method in brief: (§2)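 A glasshouse post-emergence test: 8-day-old plants sprayed at 15.625, 62.5 or 250 g/ha, then grown at 24/16 °C day/night with 14 h light and 65% humidity. Damage rated 13 days later, 0–100.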

[8] = test system: ivy-leaved morning glory (Ipomoea hederacea); assay: Test G Post-Emergence Protocol; details: Ipomoea, post-emergence, 312 h, read-out: Morningglory, Ivy-leaved damage rating; for pest or weed control at 15.625 g/ha: 15.625 g ai/ha, evaluated after 13 days (100=total damage to plant; 0=no damage to plant); for pest or weed control at 62.5 g/ha: 62.5 g ai/ha; for pest or weed control at 62.5 g/ha / pest or weed control at 250 g/ha: evaluated after 13 days, 100=total damage to plant, 0=no damage to plant; for pest or weed control at 250 g/ha: 250 g ai/ha
Method in brief: as §2

[9] = test system: velvetleaf (Abutilon theophrasti); assay: Test G Post-Emergence Protocol; details: Abutilon theophrasti, post-emergence, 312 h, read-out: Velvetleaf damage rating; for pest or weed control at 15.625 g/ha: 15.625 g ai/ha, evaluated after 13 days (100=total damage to plant; 0=no damage to plant); for pest or weed control at 62.5 g/ha: 62.5 g ai/ha; for pest or weed control at 62.5 g/ha / pest or weed control at 250 g/ha: evaluated after 13 days, 100=total damage to plant, 0=no damage to plant; for pest or weed control at 250 g/ha: 250 g ai/ha
Method in brief: as §2

corn (Zea mays) [10] = assay: Test G Post-Emergence Protocol; details: Zea mays, post-emergence, 312 h, read-out: Corn damage rating; for plant injury at 15.625 g/ha: 15.625 g ai/ha, evaluated after 13 days (100=total damage to plant; 0=no damage to plant); for plant injury at 62.5 g/ha: 62.5 g ai/ha; for plant injury at 62.5 g/ha / plant injury at 250 g/ha: evaluated after 13 days, 100=total damage to plant, 0=no damage to plant; for plant injury at 250 g/ha: 250 g ai/ha
Method in brief: as §2

[11] = test system: barnyardgrass (Echinochloa crus-galli); assay: Test G Post-Emergence Protocol; details: Echinochloa crus-galli, post-emergence, 312 h, read-out: Barnyardgrass damage rating; for pest or weed control at 15.625 g/ha: 15.625 g ai/ha, evaluated after 13 days (100=total damage to plant; 0=no damage to plant); for pest or weed control at 62.5 g/ha: 62.5 g ai/ha; for pest or weed control at 62.5 g/ha / pest or weed control at 250 g/ha: evaluated after 13 days, 100=total damage to plant, 0=no damage to plant; for pest or weed control at 250 g/ha: 250 g ai/ha
Method in brief: as §2

[12] = test system: redroot pigweed (Amaranthus retroflexus); assay: Test G Post-Emergence Protocol; details: Amaranthus retroflexus, post-emergence, 312 h, read-out: Pigweed, Redroot damage rating; for pest or weed control at 15.625 g/ha: 15.625 g ai/ha, evaluated after 13 days (100=total damage to plant; 0=no damage to plant); for pest or weed control at 62.5 g/ha: 62.5 g ai/ha; for pest or weed control at 62.5 g/ha / pest or weed control at 250 g/ha: evaluated after 13 days, 100=total damage to plant, 0=no damage to plant; for pest or weed control at 250 g/ha: 250 g ai/ha
Method in brief: as §2

[13] = evaluated after 13 days, 100=total damage to plant, 0=no damage to plant

CN1C[C@H](c2ccc(C(F)(F)F)cc2)[C@@H](C(=O)Nc2cccnc2S(C)(=O)=O)C1=O (racemic) [Compound 1789]
pest or weed control at 15.625 g/ha [1]: 0% | pest or weed control at 62.5 g/ha [1]: 0% | pest or weed control at 250 g/ha [1]: 0% | pest or weed control at 15.625 g/ha [2]: 0% | pest or weed control at 62.5 g/ha [2]: 0% | pest or weed control at 250 g/ha [2]: 0% | pest or weed control at 15.625 g/ha [3]: 0% | pest or weed control at 62.5 g/ha [3]: 0% | pest or weed control at 250 g/ha [3]: 20% | plant injury at 15.625 g/ha (corn (Zea mays) [4]): 0% | plant injury at 62.5 g/ha (corn (Zea mays) [4]): 0% | plant injury at 250 g/ha (corn (Zea mays) [4]): 10% | pest or weed control at 15.625 g/ha [5]: 0% | pest or weed control at 62.5 g/ha [5]: 0% | pest or weed control at 250 g/ha [5]: 0% | pest or weed control at 15.625 g/ha [6]: 0% | pest or weed control at 62.5 g/ha [6]: 0% | pest or weed control at 250 g/ha [6]: 20% | pest or weed control at 15.625 g/ha [7]: 0% | pest or weed control at 62.5 g/ha [7, 13]: 0% | pest or weed control at 15.625 g/ha [8]: 0% | pest or weed control at 62.5 g/ha [8]: 0% | pest or weed control at 250 g/ha [8]: 0% | pest or weed control at 15.625 g/ha [9]: 0% | pest or weed control at 62.5 g/ha [9]: 0% | pest or weed control at 250 g/ha [9]: 20% | plant injury at 15.625 g/ha (corn (Zea mays) [10]): 0% | plant injury at 62.5 g/ha (corn (Zea mays) [10]): 0% | plant injury at 250 g/ha (corn (Zea mays) [10]): 10% | pest or weed control at 15.625 g/ha [11]: 0% | pest or weed control at 62.5 g/ha [11]: 0% | pest or weed control at 250 g/ha [11]: 0% | pest or weed control at 15.625 g/ha [12]: 0% | pest or weed control at 62.5 g/ha [12]: 0% | pest or weed control at 250 g/ha [12]: 20%

Cc1ccc(C2CN(C)C(=O)C2C(=O)Nc2cccc(F)c2F)cc1C#N (centres unmarked) [Compound 1687]
pest or weed control at 15.625 g/ha [1]: 60% | pest or weed control at 62.5 g/ha [1]: 70% | pest or weed control at 250 g/ha [1]: 90% | pest or weed control at 15.625 g/ha [2]: 0% | pest or weed control at 62.5 g/ha [2]: 40% | pest or weed control at 250 g/ha [2]: 50% | pest or weed control at 15.625 g/ha [3]: 0% | pest or weed control at 62.5 g/ha [3]: 0% | pest or weed control at 250 g/ha [3]: 10% | plant injury at 15.625 g/ha (corn (Zea mays) [4]): 0% | plant injury at 62.5 g/ha (corn (Zea mays) [4]): 40% | plant injury at 250 g/ha (corn (Zea mays) [4]): 90% | pest or weed control at 15.625 g/ha [5]: 40% | pest or weed control at 62.5 g/ha [5]: 70% | pest or weed control at 250 g/ha [5]: 80% | pest or weed control at 15.625 g/ha [6]: 0% | pest or weed control at 62.5 g/ha [6]: 10% | pest or weed control at 250 g/ha [6]: 30% | pest or weed control at 15.625 g/ha [7]: 60% | pest or weed control at 62.5 g/ha [7, 13]: 80% | pest or weed control at 250 g/ha ([7]; 250 g ai/ha, evaluated after 13 days, 100=total damage to plant, 0=no damage to plant): 80% | pest or weed control at 15.625 g/ha [8]: 20% | pest or weed control at 62.5 g/ha [8]: 60% | pest or weed control at 250 g/ha [8]: 70% | pest or weed control at 15.625 g/ha [9]: 40% | pest or weed control at 62.5 g/ha [9]: 40% | pest or weed control at 250 g/ha [9]: 50% | plant injury at 15.625 g/ha (corn (Zea mays) [10]): 10% | plant injury at 62.5 g/ha (corn (Zea mays) [10]): 40% | plant injury at 250 g/ha (corn (Zea mays) [10]): 90% | pest or weed control at 15.625 g/ha [11]: 0% | pest or weed control at 62.5 g/ha [11]: 50% | pest or weed control at 250 g/ha [11]: 80% | pest or weed control at 15.625 g/ha [12]: 40% | pest or weed control at 62.5 g/ha [12]: 40% | pest or weed control at 250 g/ha [12]: 50%

— US12077503B2, “Substituted cyclic amides and their use as herbicides” (FMC CORPORATION, priority 2015, dated 2024)
